Counter-ions that a name gives are not always drawn.
Legend:
TMD8 DLBCL xenografts = assay: Antitumor activity in CB17 SCID mice bearing TMD8 DLBCL xenografts, bendamustine combination (Example 3); assay type: in vivo, mouse; conditions: bendamustine 1 mg/kg IV BIW, alone or combined, Day 14
[1] = Clinical activity in a recent study (response-evaluable subjects); assay type: in vivo; conditions: 3 DLBCL PR, 1 FL CR, 2 FL SD
[2] = Body weight and tolerability, TMD8 gemcitabine study (Example 8); assay type: in vivo, mouse; conditions: alone or combined
Procedure: (§1) Experimental design: Female CB17 SCID mice (Taconic Biosciences; weight at treatment start was 19 g) were inoculated subcutaneously in the flank (cell suspension) with 5.0×10^6 TMD8 cells. Tumor growth was monitored with vernier calipers. Tumor volume was calculated using the formula V=W^2×L/2, where V=volume, W=width and L=length of the tumor. When the mean tumor volume reached approximately 215 mm^3, the animals were randomized into treatment groups (n=8/group). […] Tumor growth and body weight were measured twice per week. Tumor growth inhibition and body weight change were calculated on Day 14 of treatment.

[3] = system: CT26 mouse syngeneic colon cancer model; assay: CT26 mouse syngeneic colon cancer model, prior non-clinical study; assay type: in vivo; conditions: single agents
OCI-LY 10 xenografts = assay: Antitumor activity in CB17 SCID mice bearing OCI-LY10 xenografts, ABT-199 combination (Example 11); assay type: in vivo, mouse; conditions: Day 21, alone or combined
Procedure: Tumor growth inhibition was calculated on Day 21 of the study. The last measurement was taken on Day 46 of the study.
as §1, with “(Charles River Laboratories, about 21 g” for “(Taconic Biosciences; weight”, “start)” for “start was 19 g)”, “4.0×10^6 OCI-Ly10” for “5.0×10^6 TMD8”, “175” for “215”, “(n=5/group).” for “(n=8/group).”, “21” for “14”
Statistical analysis: The differences in the tumor growth trends over time between pairs of treatment groups were assessed using linear mixed effects regression models. These models account for the fact that each animal was measured at multiple time points. A separate model was fit for each comparison, and the areas under the curve (AUC) for each treatment group were calculated using the predicted values from the model. The percent decrease in AUC (dAUC) relative to the reference group was then calculated. […] Further details regarding pairwise comparisons are provided in the Example 2.
Drug combinations were assessed for synergy using observed AUC values. The change in AUC relative to the control was calculated for both single agent treatment groups as well as the combination group. The interaction between the two compounds was then assessed by comparing the change in AUC observed in the combination group to the sum of the changes observed in both single agents. The results can be divided into four categories: synergistic, additive, sub-additive, and antagonistic. Further details regarding combination analyses are provided in the Example 2.
Once a final analysis was selected, the tumor measurements observed on a date pre-specified by the researcher (typically the last day of treatment) were analyzed to assess tumor growth inhibition. For this analysis, a T/C ratio was calculated for each animal by dividing the tumor measurement for the given animal by the mean tumor measurement across all control animals. The T/C ratios across a treatment group were compared to the T/C ratios of the control group using a two-tailed Welch's t-test.

[4] = Compound A 60 mg/kg, ABT-199 12.5 mg/kg

Compound: Cn1cc(-c2nc(N[C@@H]3CCCC[C@@H]3N)c(F)c3c2C(=O)NC3)cn1 [Compound A, 6-((1R,2S)-2-aminocyclohexylamino)-7-fluoro-4-(1-methyl-1H-pyrazol-4-yl)-1H-pyrrolo[3,4-c]pyridine-3 (2H)-one citrate]
- Mean Tumor Volume (mm^3) ± SEM (TMD8 DLBCL xenografts; Compound A 60 mg/kg PO QD 14 d): 1,085.5 ± 173.3 mm^3
- T/C (TMD8 DLBCL xenografts; Compound A 60 mg/kg PO QD): 0.61
- TGI (%) (TMD8 DLBCL xenografts; Compound A 60 mg/kg PO QD): 38.5%
- response-evaluable subjects who responded to treatment [1]: 6 of the 20
- % BW Change (Day Maximum) ([2]; Compound A 60 mg/kg PO QD 14 d, gemcitabine 5 mg/kg IP Q3D x4): 6.4 (12) %
- Number of animals removed ([2]; Compound A 60 mg/kg, gemcitabine 5 mg/kg): 0
- animals survived to 30 days after the last dose [3]: 20%
- TGI (%) (OCI-LY 10 xenografts; Compound A 60 mg/kg PO QD, ABT-199 12.5 mg/kg PO QD): 61.0%
- Mean Tumor Volume (mm^3) ± SEM (OCI-LY 10 xenografts; [4]): 408 ± 104.9 mm^3
- T/C (OCI-LY 10 xenografts; [4]): 0.39

From patent publication US20190231757A1, “COMBINATION OF SPLEEN TYROSINE KINASE INHIBITORS AND OTHER THERAPEUTIC AGENTS” (Takeda Pharmaceutical Company Limited, priority 2016, published 2019)
